Assay [1] concerns Methicillin Resistant Staphylococcus aureus. The experiment in a line: Minimum inhibitory concentration (MIC) test. It counts as cell-based. As to conditions: mupirocin combined with micronized poloxamer composition 202 (poloxamer 188 and poloxamer 407). The procedure: (§1) “Minimum Inhibitory Concentration (MIC)” may refer to the lowest concentration of an antimicrobial that may inhibit the visible growth of a microorganism after overnight incubation.
(§2) Moreover, micronized poloxamer composition 202 may enhance mupirocin's properties by lowering the minimum inhibitory concentration (MIC) to about […]. The MIC was tested against microorganisms such as Pseudomonas aeruginosa, and Methicillin Resistant Staphylococcus aureus, among others.

The subject of a further assay is Pseudomonas aeruginosa. The experiment in a line: Minimum inhibitory concentration (MIC) test. It counts as cell-based. The settings on record: mupirocin combined with micronized poloxamer composition 202 (poloxamer 188 and poloxamer 407). The procedure:
as §1, §2

Regarding `C/C(=C\C(=O)OCCCCCCCCC(=O)O)C[C@@H]1OC[C@H](C[C@@H]2O[C@H]2[C@@H](C)[C@H](C)O)[C@@H](O)[C@H]1O` [mupirocin], the “minimum inhibitory concentration (MIC)” value (in assay [1]; in the assay with Pseudomonas aeruginosa) was “about 1.7 g” in each case.

For the origin of these results see patent US20140371305A1, “Mupirocin Antibiotic Composition” (PROFESSIONAL COMPOUNDING CENTERS OF AMERICA, priority 2013, published 2014).
